Measurements as given in ChEMBL document CHEMBL1129930, “Analogues of methotrexate in rheumatoid arthritis. 2. Effects of 5-deazaaminopterin, 5,10-dideazaaminopterin, and analogues on type II collagen-induced arthritis in mice” (J Med Chem, 1997).

How the values were obtained:
Format in all cases: functional
[1] = system: Mus musculus; test: Tested for antiinflammatory activity on mouse type II collagen arthritis as Paw swelling of all animals in each group on day 37 at intraperitoneal dose of 0.094 mg/kg
[2] = system: Mus musculus; test: Incidence of disease (mouse type II collagen) was scored as the percentage of animals within each experimental group that exhibited joint or limb inflammation on day 30 at intraperitoneal dose of 0.38 mg/kg (deaths observed at 1.5 mg/kg)
[3] = system: Mus musculus; test: Incidence of disease (mouse type II collagen) was scored as the percentage of animals within each experimental group that exhibited joint or limb inflammation on day 23 at intraperitoneal dose of 0.047 mg/kg (deaths observed at 1.5 mg/kg)
[4] = system: Mus musculus; test: Incidence of disease (mouse type II collagen) was scored as the percentage of animals within each experimental group that exhibited joint or limb inflammation on day 23 at intraperitoneal dose of 0.75 mg/kg (deaths observed at 1.5 mg/kg)
[5] = system: Mus musculus; test: Incidence of disease (mouse type II collagen) was scored as the percentage of animals within each experimental group that exhibited joint or limb inflammation on day 30 at intraperitoneal dose of 0.047 mg/kg (deaths observed at 1.5 mg/kg)
[6] = system: Mus musculus; test: Tested for antiinflammatory activity on mouse type II collagen arthritis as Paw swelling of all animals in each group on day 44 at intraperitoneal dose of 0.75 mg/kg
[7] = system: Mus musculus; test: Tested for antiinflammatory activity on mouse type II collagen arthritis as Paw swelling of all animals in each group on day 44 at intraperitoneal dose of 0.047 mg/kg
[8] = system: Mus musculus; test: Tested for antiinflammatory activity on mouse type II collagen arthritis as Paw swelling of all animals in each group on day 37 at intraperitoneal dose of 0.75 mg/kg
[9] = system: Mus musculus; test: Tested for antiinflammatory activity on mouse type II collagen arthritis as Paw swelling of all animals in each group on day 44 at intraperitoneal dose of 0.094 mg/kg
[10] = system: Mus musculus; test: Tested for antiinflammatory activity on mouse type II collagen arthritis as Paw swelling of all animals in each group on day 30 at intraperitoneal dose of 0.024 mg/kg
[11] = system: Mus musculus; test: Tested for antiinflammatory activity on mouse type II collagen arthritis as Paw swelling of all animals in each group on day 30 at intraperitoneal dose of 0.75 mg/kg
[12] = system: Mus musculus; test: Incidence of disease (mouse type II collagen) was scored as the percentage of animals within each experimental group that exhibited joint or limb inflammation on day 30 at intraperitoneal dose of 0.19 mg/kg (deaths observed at 1.5 mg/kg)
[13] = system: Mus musculus; test: Tested for antiinflammatory activity on mouse type II collagen arthritis as Paw swelling of all animals in each group on day 44 at intraperitoneal dose of 0.024 mg/kg
[14] = system: Mus musculus; test: Incidence of disease (mouse type II collagen) was scored as the percentage of animals within each experimental group that exhibited joint or limb inflammation on day 30 at intraperitoneal dose of 0.094 mg/kg (deaths observed at 1.5 mg/kg)
[15] = system: Mus musculus; test: Incidence of disease (mouse type II collagen) was scored as the percentage of animals within each experimental group that exhibited joint or limb inflammation on day 23 at intraperitoneal dose of 0.19 mg/kg (deaths observed at 1.5 mg/kg)
[16] = system: Mus musculus; test: Tested for antiinflammatory activity on mouse type II collagen arthritis as Paw swelling of all animals in each group on day 44 at intraperitoneal dose of 0.19 mg/kg
[17] = system: Mus musculus; test: Tested for antiinflammatory activity on mouse type II collagen arthritis as Paw swelling of all animals in each group on day 37 at intraperitoneal dose of 0.19 mg/kg
[18] = system: Mus musculus; test: Tested for antiinflammatory activity on mouse type II collagen arthritis as Paw swelling of all animals in each group on day 37 at intraperitoneal dose of 0.047 mg/kg
[19] = system: Mus musculus; test: Tested for antiinflammatory activity on mouse type II collagen arthritis as Paw swelling of all animals in each group on day 30 at intraperitoneal dose of 0.094 mg/kg
[20] = system: Mus musculus; test: Incidence of disease (mouse type II collagen) was scored as the percentage of animals within each experimental group that exhibited joint or limb inflammation on day 44 at intraperitoneal dose of 0.094 mg/kg (deaths observed at 1.5 mg/kg)
[21] = system: Mus musculus; test: Tested for antiinflammatory activity on mouse type II collagen arthritis as Paw swelling of all animals in each group on day 23 at intraperitoneal dose of 0.024 mg/kg
[22] = system: Mus musculus; test: Tested for antiinflammatory activity on mouse type II collagen arthritis as Paw swelling of all animals in each group on day 23 at intraperitoneal dose of 0.75 mg/kg
[23] = system: Mus musculus; test: Incidence of disease (mouse type II collagen) was scored as the percentage of animals within each experimental group that exhibited joint or limb inflammation on day 44 at intraperitoneal dose of 0.38 mg/kg (deaths observed at 1.5 mg/kg)
[24] = system: Mus musculus; test: Tested for antiinflammatory activity on mouse type II collagen arthritis as Paw swelling of all animals in each group on day 30 at intraperitoneal dose of 0.38 mg/kg
[25] = system: Mus musculus; test: Incidence of disease (mouse type II collagen) was scored as the percentage of animals within each experimental group that exhibited joint or limb inflammation on day 37 at intraperitoneal dose of 0.19 mg/kg (deaths observed at 1.5 mg/kg)
[26] = system: Mus musculus; test: Incidence of disease (mouse type II collagen) was scored as the percentage of animals within each experimental group that exhibited joint or limb inflammation on day 37 at intraperitoneal dose of 0.047 mg/kg (deaths observed at 1.5 mg/kg)
[27] = system: Mus musculus; test: Incidence of disease (mouse type II collagen) was scored as the percentage of animals within each experimental group that exhibited joint or limb inflammation on day 37 at intraperitoneal dose of 0.75 mg/kg (deaths observed at 1.5 mg/kg)
[28] = system: Mus musculus; test: Incidence of disease (mouse type II collagen) was scored as the percentage of animals within each experimental group that exhibited joint or limb inflammation on day 37 at intraperitoneal dose of 0.024 mg/kg (deaths observed at 1.5 mg/kg)
[29] = system: Mus musculus; test: Tested for antiinflammatory activity on mouse type II collagen arthritis as Paw swelling of all animals in each group on day 37 at intraperitoneal dose of 0.38 mg/kg
[30] = Concentration required to inhibit the growth of chang liver cells.; conditions: Homo sapiens
[31] = system: Mus musculus; test: Incidence of disease (mouse type II collagen) was scored as the percentage of animals within each experimental group that exhibited joint or limb inflammation on day 44 at intraperitoneal dose of 0.75 mg/kg (deaths observed at 1.5 mg/kg)
[32] = system: Mus musculus; test: Incidence of disease (mouse type II collagen) was scored as the percentage of animals within each experimental group that exhibited joint or limb inflammation on day 23 at intraperitoneal dose of 0.094 mg/kg (deaths observed at 1.5 mg/kg)
[33] = system: Mus musculus; test: Tested for antiinflammatory activity on mouse type II collagen arthritis as Paw swelling of all animals in each group on day 44 at intraperitoneal dose of 0.38 mg/kg

CCc1c(CN(C)c2ccc(C(=O)NC(CCC(=O)O)C(=O)O)cc2)cnc2nc(N)nc(N)c12 (stereo not drawn)
Paw swelling [1]: 2.2 mm
Animals [2]: 0%
Animals [3]: 0%
Animals [4]: 0%
Animals [5]: 12%
Paw swelling [6]: 2.18 mm
Paw swelling [7]: 2.57 mm
Paw swelling [8]: 2.2 mm
Paw swelling [9]: 2.27 mm
Paw swelling [10]: 2.22 mm
Paw swelling [11]: 2.2 mm
Animals [12]: 12%
Paw swelling [13]: 2.23 mm
Animals [14]: 12%
Animals [15]: 0%
Paw swelling [16]: 2.2 mm
Paw swelling [17]: 2.17 mm
Paw swelling [18]: 2.33 mm
Paw swelling [19]: 2.14 mm
Animals [20]: 25%
Paw swelling [21]: 2.12 mm
Paw swelling [22]: 2.14 mm
Animals [23]: 0%
Paw swelling [24]: 2.16 mm
Animals [25]: 12%
Animals [26]: 50%
Animals [27]: 14%
Animals [28]: 0%
Paw swelling [29]: 2.17 mm
IC50 [30]: 89 nM
Animals [31]: 14%
Animals [32]: 0%
Paw swelling [33]: 2.15 mm
